Consider 35 molecules from patent US20170291905A1, “ARGININE […] INHIBITORS AND USES THEREOF” (Epizyme, Inc., priority 2014, published 2017).

Structures can show the parent of a compound that is named as a salt.

This assay deals with T1, PRMT1 (Homo sapiens, UniProt Q99873).
T1 construct: host or cells: RKO cells
T1 sequence (Q99873 whole entry): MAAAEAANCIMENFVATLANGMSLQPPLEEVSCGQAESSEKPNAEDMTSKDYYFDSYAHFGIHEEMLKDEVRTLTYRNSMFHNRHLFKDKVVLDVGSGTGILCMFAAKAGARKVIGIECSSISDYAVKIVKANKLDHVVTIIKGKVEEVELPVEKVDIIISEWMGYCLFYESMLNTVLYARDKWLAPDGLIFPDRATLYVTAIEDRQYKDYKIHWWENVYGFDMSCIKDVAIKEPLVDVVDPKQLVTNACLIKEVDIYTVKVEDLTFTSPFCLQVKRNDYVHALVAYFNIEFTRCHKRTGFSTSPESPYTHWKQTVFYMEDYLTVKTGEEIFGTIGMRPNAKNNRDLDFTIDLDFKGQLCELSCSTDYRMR
The assay is described as follows: RKO methylation assay, In Cell Western (ICW) for mono-methyl arginine and DNA content. It counts as cell-based. To be noted: RKO cells, 72 hours, mono-methyl arginine signal normalised to DRAQ5, percent activation. From the text:
RKO Methylation Assay RKO adherent cells were purchased from ATCC (American Type Culture Collection), Manassas, Va., USA. DMEM/Glutamax medium, penicillin-streptomycin, heat inactivated fetal bovine serum, 0.05% trypsin and D-PBS were purchased from Life Technologies, Grand Island, N.Y., USA. Odyssey blocking buffer, 800CW goat anti-rabbit IgG (H+L) antibody, and Licor Odyssey infrared scanner were purchased from Licor Biosciences, Lincoln, Nebr., USA. Mono-methyl arginine antibody was purchased from Cell Signaling Technology, Danvers, Mass., USA. Methanol was purchased from VWR, Franklin, Mass., USA. 10% Tween 20 was purchased from KPL, Inc., Gaithersburg, Md., USA. DRAQ5 was purchased from Biostatus Limited, Leicestershire, UK. RKO adherent cells were maintained in growth medium (DMEM/Glutamax medium supplemented with 10% v/v heat inactivated fetal bovine serum and 100 units/mL penicillin-streptomycin) and cultured at 37° C. under 5% CO2. Cell Treatment, in Cell Western (ICW) for Detection of Mono-Methyl Arginine and DNA Content. RKO cells were seeded in assay medium at a concentration of 20,000 cells per mL to a poly-D-lysine coated 384 well culture plate (BD Biosciences 356697) with 50 μL per well. Compound (100 nL) from a 96-well source plate was added directly to 384 well cell plate. Plates were incubated at 37° C., 5% CO2 for 72 hours. After three days of incubation, plates were brought to room temperature outside of the incubator for ten minutes and blotted on paper towels to remove cell media. 50 μL of ice cold 100% methanol was added directly to each well and incubated for 30 min at room temperature. After 30 min, plates were transferred to a Biotek EL406 plate washer and washed 2 times with 100 μL per well of wash buffer (1×PBS). Next 60 μL per well of Odyssey blocking buffer (Odyssey Buffer with 0.1% Tween 20 (v/v)) were added to each plate and incubated 1 hour at room temperature. Blocking buffer was removed and 20 μL per well of primary antibody was added (mono-methyl arginine diluted 1:200 in Odyssey buffer with 0.1% Tween 20 (v/v)) and plates were incubated overnight (16 hours) at 4° C. Plates were washed 5 times with 100 μL per well of wash buffer. Next 20 μL per well of secondary antibody was added (1:200 800CW goat anti-rabbit IgG (H+L) antibody, 1:1000 DRAQ5 (Biostatus limited) in Odyssey buffer with 0.1% Tween 20 (v/v)) and incubated for 1 hour at room temperature. The plates were washed 5 times with 100 μL per well wash buffer then 2 times with 100 μL per well of water. Plates were allowed to dry at room temperature then imaged on the Licor Odyssey machine which measures integrated intensity at 700 nm and 800 nm wavelengths. Both 700 and 800 channels were scanned. […] Each plate included fourteen control wells of DMSO only treatment (minimum activation) as well as fourteen control wells for maximum activation treated with 20 μM of a reference compound. The average of the ratio values for each control type was calculated and used to determine the percent activation for each test well in the plate. Reference compound was serially diluted three-fold in DMSO for a total of nine test concentrations, beginning at 20 μM. Percent activation was determined and EC30 curves were generated using triplicate wells per concentration of compound.
For the molecule `CCC1(CC)C[C@]2(CC[C@@H](c3n[nH]cc3CN(C)CCNC)CC2)OC1=O` [compound 34, (5r,8r)-3,3-diethyl-8-(4-((methyl(2-(methylamino)ethyl)amino)methyl)-1H-pyrazol-3-yl)-1-oxaspiro[4.5]decan-2-one], the “PRMT1 RGG ICW EC30” value came out at 65.46 nM. As to `CNCCN(C)Cc1nn[nH]c1[C@H]1CC[C@@]2(CC1)CC(C)(C)CO2` [compound 67], the “PRMT1 RGG ICW EC30” value was 33.9 nM. The value for `CNCCN(C)Cc1nn[nH]c1[C@H]1CC[C@]2(CC1)CC(C)(C)CO2` [compound 89] was 760.4 nM; that for `CC[C@]12CC[C@](CC)(C[C@H](c3n[nH]cc3CN(C)CCNC)C1)O2` [compound 37, N1-((3-((1R,3r,5S)-1,5-diethyl-8-oxabicyclo[3.2.1]octan-3-yl)-1H-pyrazol-4-yl)methyl)-N1,N2-dimethylethane-1,2-diamine] was 245.5 nM; that for `CNCCN(C)Cc1c[nH]nc1C1C[C@H](C(=O)NCCOC)C(C)(C)[C@H](C(=O)NCCOC)C1` (some centres unmarked) [compound 13] was over 5000 nM. The same measure for `CCN(C)C(=O)C1CC(c2n[nH]cc2CN(C)CCNC)CC(C(=O)NCCC(C)C)C1(C)C` (centres unmarked) [compound 14, N1-ethyl-N3-isopentyl-N1,2,2-trimethyl-5-(4-((methyl(2-(methylamino)ethyl)amino)methyl)-1H-pyrazol-3-yl)cyclohexane-1,3-dicarboxamide]: over 5000 nM. The value for `CNCCN(C)Cc1c[nH]nc1[C@H]1CC[C@@]2(CCN(CCC(C)C)C2=O)CC1` [compound 11, (5r,8r)-2-isopentyl-8-(4-((methyl(2-(methylamino)ethyl)amino)methyl)-1H-pyrazol-3-yl)-2-azaspiro[4.5]decan-1-one] was 34.17 nM; that for `CNCCN(C)Cc1sc(C)nc1[C@H]1CC[C@@]2(CC1)CC(C)(C)CO2` [compound 78] was 29.59 nM; that for `CNCCN(C)Cc1nn(C)nc1C1CCC2(CC1)CC(C)(C)CO2` (centres unmarked) [compound 86] was 443.6 nM.

For `CNCCN(C)Cc1nn(C)cc1[C@H]1CC[C@]2(CC1)CC(C)(C)CO2` [compound 103], the “PRMT1 RGG ICW EC30” value is 597.4 nM. The same measure for `CNCCN(C)Cc1c(C)noc1[C@H]1CC[C@]2(CC1)CC(C)(C)CO2` [compound 114]: over 10000 nM. The value for `CCOCC1(COCC)CCC(c2n[nH]cc2CN(C)CCN(C)C)CC1` [compound 121] was 117.5 nM; that for `CNCCN(C)Cc1c[nH]nc1C1CCC(OCCCOC)C2(CCCC2)C1` (mixture of isomers) [compound 19, N1-((3-(10-(3-methoxypropoxy)spiro[4.5]decan-7-yl)-1H-pyrazol-4-yl)methyl)-N1,N2-dimethylethane-1,2-diamine dihydrochloride] was 440.3 nM. The same measure for `CNCCN(C)Cc1c[nH]nc1[C@H]1CC[C@@]2(CCCOC2)CC1` [compound 5, N1-((3-((6r,9r)-2-oxaspiro[5.5]undecan-9-yl)-1H-pyrazol-4-yl)methyl)-N1,N2-dimethylethane-1,2-diamine]: 14.65 nM; for `CN(CCN)Cc1nn(C)cc1[C@H]1CC[C@@]2(CC1)CC(C)(C)CO2` [compound 80]: 61.59 nM; for `CNCCN(C)Cc1c[nH]nc1[C@H]1CC[C@]2(CCCOC2)CC1` [compound 4, N1-((3-((6s,9s)-2-oxaspiro[5.5]undecan-9-yl)-1H-pyrazol-4-yl)methyl)-N1,N2-dimethylethane-1,2-diamine]: 18.34 nM.

On to `CNCCN(C)Cc1nocc1[C@H]1CC[C@@]2(CC1)CC(C)(C)CO2` [compound 117], for which the “PRMT1 RGG ICW EC30” value came to 863.2 nM. The same measure for `CN(CCN)Cc1c[nH]nc1[C@H]1CC[C@@]2(CC1)CC(C)(C)CO2` [compound 105]: 12.12 nM; for `CNCCN(C)Cc1c[nH]nc1C1CC(COCC2CC2)CC(COCC2CC2)C1` (centres unmarked) [compound 2]: over 5000 nM. With `CNCCN(C)Cc1c[nH]nc1C1CCC2(CCC(OC)CC2)CC1` (centres unmarked) [compound 9, N1-((3-(9-methoxyspiro[5.5]undecan-3-yl)-1H-pyrazol-4-yl)methyl)-N1,N2-dimethylethane-1,2-diamine], the “PRMT1 RGG ICW EC30” value is 12.45 nM.

For the molecule `CNCCN(C)Cc1c[nH]nc1C1C[C@@H](C(=O)N(C)CC(C)C)C(C)(C)[C@H](C(=O)N(C)CC(C)C)C1` (some centres unmarked) [compound 12], the “PRMT1 RGG ICW EC30” value was over 5000 nM.

For `CCC1(CC)CC2(CCC(c3n[nH]cc3CN(C)CCNC)CC2)N(C)C1=O` (centres unmarked) [compound 22, 3,3-diethyl-1-methyl-8-(4-((methyl(2-(methylamino)ethyl)amino)methyl)-1H-pyrazol-3-yl)-1-azaspiro[4.5]decan-2-one], the “PRMT1 RGG ICW EC30” value came out at 1835 nM.

Take `CNCCN(C)Cc1c[nH]nc1[C@H]1CC[C@]2(CCCCO2)CC1` [compound 127, methyl([2-[methyl([3-[(6s,9r)-1-oxaspiro[5.5]undecan-9-yl]-1H-pyrazol-4-yl]methyl)amino]ethyl])amine bistrifluoroacetic acid salt]: the “PRMT1 RGG ICW EC30” value was determined as 8.48 nM. The value for `CCCOCC1(COCCC)CCC(c2n[nH]cc2CN(C)CCNC)CC1` [compound 36, N^1-((3-(4,4-bis(propoxymethyl)cyclohexyl)-1H-pyrazol-4-yl)methyl)-N^1,N^2-dimethylethane-1,2-diamine] was 66.17 nM. Regarding `CNCCN(C)Cc1c[nH]nc1[C@H]1CC[C@H](COCC(F)(F)F)CC1` [compound 24, N1,N2-dimethyl-N1-((3-((1r,4r)-4-((2,2,2-trifluoroethoxy)methyl)cyclohexyl)-1H-pyrazol-4-yl)methyl)ethane-1,2-diamine], the “PRMT1 RGG ICW EC30” value amounted to 161.6 nM.

On to `CNCCN(C)Cc1c[nH]nc1[C@@H]1CC[C@H](OCCCOC)C2(CCCC2)C1` (racemic) [compound 27, N1-((3-((7R,10S)-10-(3-methoxypropoxy)spiro[4.5]decan-7-yl)-1H-pyrazol-4-yl)methyl)-N1,N2-dimethylethane-1,2-diamine], for which the “PRMT1 RGG ICW EC30” value turned out to be 216.4 nM. The same measure for `CNCCN(C)Cc1c(C)[nH]nc1[C@H]1CC[C@@]2(CC1)CC(C)(C)CO2` [compound 57]: 40.32 nM. The value for `CNCCN(C)Cc1scnc1[C@H]1CC[C@]2(CC1)CC(C)(C)CO2` [compound 84] was 54.69 nM; that for `CNCCN(C)Cc1c[nH]nc1C1CCC(C)(C)[C@H](COCCOC)C1` (stereo partly drawn) [compound 35, {2-[({3-[(3R)-3-[(2-methoxyethoxy)methyl]-4,4-dimethylcyclohexyl]-1H-pyrazol-4-yl}methyl)(methyl)amino]ethyl}(methyl)amine] was 330.1 nM. The same measure for `CNCCN(C)Cc1c[nH]nc1[C@H]1CC[C@@H](COCC(F)(F)F)CC1` [compound 23, N1,N2-dimethyl-N1-((3-((1s,4s)-4-((2,2,2-trifluoroethoxy)methyl)cyclohexyl)-1H-pyrazol-4-yl)methyl)ethane-1,2-diamine]: 1721 nM; for `CNCCN(C)Cc1c[nH]nc1C1CCC(C)(C)[C@H](COCCCOC)C1` (stereo partly drawn) [compound 30, {2-[({3-[(3R)-3-[(3-methoxypropoxy)methyl]-4,4-dimethylcyclohexyl]-1H-pyrazol-4-yl}methyl)(methyl)amino]ethyl}(methyl)amine]: 209 nM. As to `CCOCC1(COCC)CC=C(c2n[nH]cc2CN(C)CCNC)CC1` [compound 60], the “PRMT1 RGG ICW EC30” value amounted to 44.67 nM.

With `CCOCC1(COCC)CCC(c2n[nH]cc2CN(C)CCN)CC1` [compound 123], the “PRMT1 RGG ICW EC30” value came out at 17.8 nM. For `CNCCN(C)Cc1c[nH]nc1C1CCC(C)(C)[C@H](CO)C1` (stereo partly drawn) [compound 32, [(1R)-2,2-dimethyl-5-[4-({methyl[2-(methylamino)ethyl]amino}methyl)-1H-pyrazol-3-yl]cyclohexyl]methanol], the “PRMT1 RGG ICW EC30” value stood at 517.9 nM. The value for `CNCCN(C)Cc1scnc1[C@H]1CC[C@@]2(CC1)CC(C)(C)CO2` [compound 62] was 6.96 nM.
